# Measurements: patent US20160361314A1, “COMBINATION OF AN ALK INHIBITOR AND A CDK INHIBITOR FOR THE TREATMENT OF CELL PROLIFERATIVE DISEASES” (NOVARTIS AG, priority 2013, published 2016)
# Entries after “also recorded” stand apart in the source; their conditions may differ.
# What was measured:
# Assay type in all cases: cell-based
# [1] = test system: CHP-134 human neuroblastoma cells; test: Loewe additivity (CHALICE) synergy screen, CellTiter-Glo viability, 7x7 dose matrix; set-up: key to Max Combo Effect: growth inhibition scale; 100 = stasis; details: for Max Combo Effect: in % (unit assumed)
# Description: (§1) The synergistic interaction of drug combinations were assessed based on the Loewe Additivity Model using Chalice software [CombinatoRx, Cambridge Mass.]). […] 27:659-66. The software compares the response (% inhibition or % reduction of cell viability) of drug treatment from a combination of two agents to the response of the agents acting alone, against the drug-with-itself dose-additive reference model (the Loewe Additivity Model). Deviations from dose additives can be assessed numerically with a “synergy score” which quantifies the overall strength of combination effect. A synergy score >0 indicates a synergistic combination. In order to ensure only strongly synergistic combinations were selected, the acceptance criteria were set at a higher level. Strongly synergistic combinations were defined as having both a synergy score >2, a synergy score that is twice as large as the background (non-synergy) model would predict, and a maximum efficacy of >100, a value equivalent to stasis, as determined from the growth inhibition calculation.
# (§2) After treatment, cell viabilty (quantity of viable cells) for each test mixtures were determined by the CellTiter-Glo® (CTG) luminescent cell viability assay (Promega) described in the Assay section, infra. […] The response to treatment (% reduction of cell viability) was analyzed using Chalice software [CombinatoRx, Cambridge Mass.]). Data evaluation and graph generation were performed using Microsoft Excel software and Chalice software.
# (§3) The combinations were tested in duplicate using a 7×7 dose matrix block in 1536 well format with a cell proliferation readout as described in the Assay section infra.
# (§4) All synergy calculations were performed using CHALICE software package from Zalicus and potential synergistic interactions between compound combinations were assessed using the Excess Inhibition 2D matrix according to the Loewe additivity model and were reported as synergy score (Table 10) (Lehar et al). Strongly synergistic combination were identified as having both (1) a synergy score greater than 2, a synergy score that is twice as large as the background (non-synergy) model would predict, and (2) a maximum efficacy of >100, a value roughly equivalent to stasis, as determined from the growth inhibition calculation.
# (§5) Cell viability were determined by measuring cellular ATP content using the CellTiter-Glo® (CTG) luminescent cell viability assay (Promega). […] Reduced and enhanced luminescent signal values (responses) were calculated relative to untreated (control) cells, and the calculated signal value proportional to the cell viability.
# (§6) Synergistic combinations were identified based on the Loewe Addivity Model. To measure the effects of drug combinations on the cell viability, cells from the 20 cell lines listed in Table 1 above were seeded into 1536-well assay plates at a density 300 cells per well in a 7 μL final volume and incubated at 37° C. overnight in a GNF Systems incubator with 95% RH and 5% CO2.
# (§7) A six-point dose response curve for the test compounds were prepared in a 384 well ECHO compatible source plate (Labcyte P-05525) with 3-fold serial dilution series. For example, for a six-point dose response curve and a top compound concentration of 5 mM, the concentration of the compounds in the source well were 5 mM, 1.67 mM, 0.56 mM, 0.19 mM, 0.06 mM and 0.02 mM.
# (§8) Approximately 18 hours after plating, compound combinations were generated on the fly by transferring 7.5 nL of compound from the pre-diluted source plates using the Labcyte ECHO555 integrated onto the ACP-1 system with replicate plates per cell line; the final DMSO concentration per well was 0.2%. It is noted that the total volume in the wells was 7 μL.
# (§9) The well at the intersection of the first column and first row which received no compound was dosed with 2×7.5 nL of DMSO and served as control.
# [2] = test system: IMR-5 human neuroblastoma cells; test: as above; set-up: key to Max Combo Effect: growth inhibition scale; 100 = stasis
# Description: as §1, §2, §3, §4, §5, §6, §7, §8, §9
# [3] = test system: NB-1691 human neuroblastoma cells; test: as above; set-up: key to Max Combo Effect: growth inhibition scale; 100 = stasis; details: NB-1691 (WT); for Max Combo Effect: in % (unit assumed)
# Description: as §1, §2, §3, §4, §5, §6, §7, §8, §9
# [4] = test system: NB-SD human neuroblastoma cells; test: as above; set-up: key to Max Combo Effect: growth inhibition scale; 100 = stasis; details: NB-SD (F1174L); for Max Combo Effect: in % (unit assumed)
# Description: as §1, §2, §3, §4, §5, §6, §7, §8, §9
# [5] = test system: NLF human neuroblastoma cells; test: as above; set-up: key to Max Combo Effect: growth inhibition scale; 100 = stasis; details: NLF (WT)
# Description: as §1, §2, §3, §4, §5, §6, §7, §8, §9
# [6] = test system: SK-N-AS human neuroblastoma cells; test: as above; set-up: key to Max Combo Effect: growth inhibition scale; 100 = stasis; details: SK-N-AS (WT); for Max Combo Effect: in % (unit assumed)
# Description: as §1, §2, §3, §4, §5, §6, §7, §8, §9
# [7] = test system: SK-N-BE(2) human neuroblastoma cells; test: as above; set-up: key to Max Combo Effect: growth inhibition scale; 100 = stasis; details: SK-N-BE(2) (WT)
# Description: as §1, §2, §3, §4, §5, §6, §7, §8, §9
# [8] = test system: LAN-5 human neuroblastoma cells; test: as above; set-up: key to Max Combo Effect: growth inhibition scale; 100 = stasis; details: LAN-5 (R1275Q)
# Description: as §1, §2, §3, §4, §5, §6, §7, §8, §9
# [9] = test system: NB-1 human neuroblastoma cells; test: as above; set-up: key to Max Combo Effect: growth inhibition scale; 100 = stasis; details: for Max Combo Effect: in % (unit assumed)
# Description: as §1, §2, §3, §4, §5, §6, §7, §8, §9
# [10] = test system: panel of human neuroblastoma cell lines (ALK mutant and wild type); test: Loewe additivity (CHALICE) synergy screen, results over the whole panel; details: for Single-agent efficacy over the panel (self-cross scatter plots): Example A, FIGS. 4A, 4B, 15 cell lines; for Mean of synergy scores over the cell lines / Median of synergy scores over the cell lines: 15 cell lines of Table 2; for Efficacy and synergy over the panel (scatter plots): Example G, FIG. 21, 16 cell lines
# Description: as §1, §2
# The statistical variation of the synergy scores tabulated in Tables 2 and 3 were graphically illustrated by a Box Plot (FIG. 3). […] The ALK×ALK and CDK4/6×CDK4/6 combination is moderately sygergistic with synergy score at 1.011 (sd=0.4) and 1.16 (sd=0.43), respectively. In ALK normal cells, the combinations and the self-cross treatments were not sygeristic with synergistic score of about 0.5, but similarly large standard deviations.
# For visual identification for strongly synergistic compositions, the data in Tables 2 and 3 were presented in scatter plots (FIGS. 4 A-C) where maximum combination efficacy were plotted against the synergy scores. Only data from two of the three ALK inhibitors, compounds A1 and A2 were included. In a scatter plot, a vertical shift implies additive effect; a right shift implies synergistic interactions and a diagonal shift implies synergy with a boost in efficacy. Synergistic combination hits are those in the upper right quadrant where the synergy score is >2 and the maximum efficacy is >100.
# as §3, §4, §5
# Synergistic combinations were identified based on the Loewe Addivity Model.
SMILES,"Synergy score (Mean) ([1]; CHP-134 (WT), Table 3)","Max Combo Effect ([1]; CHP-134 (WT), Table 3)","Max Combo Effect ([2]; IMR-5 (WT), Table 3)","Synergy score (Mean) ([2]; IMR-5 (WT), Table 3)",Synergy score (Mean) ([3]; Table 3),Max Combo Effect ([3]; Table 3),Synergy score (Mean) ([4]; Table 3),Max Combo Effect ([4]; Table 3),Max Combo Effect ([5]; Table 3),Synergy score (Mean) ([5]; Table 3),Synergy score (Mean) ([6]; Table 3),Max Combo Effect ([6]; Table 3),Max Combo Effect ([7]; Table 3),Synergy score (Mean) ([7]; Table 3),Max Combo Effect ([8]; Table 3),Synergy score (Mean) ([8]; Table 3),"Synergy score (Mean) ([9]; NB-1 (WT_Amp), Table 3)","Max Combo Effect ([9]; NB-1 (WT_Amp), Table 3)",Single-agent efficacy over the panel (self-cross scatter plots) [10],"Synergy score (Mean) ([1]; CHP-134 (ALK WT), Table 2)",further results
"C[C@@H](Oc1cc(-c2cnn(C3CCNCC3)c2)cnc1N)c1c(Cl)ccc(F)c1Cl [Compound A3, (R)-3-(1-(2,6-dichloro-3-fluorophenyl)ethoxy)-5-(1-(piperidin-4-yl)-1H-pyrazol-4-yl)pyridin-2-amine, reference compound]",0.02,10.05,99.95,0.73,0.21,36.53,0.84,75.54,29.10,0.08,0.19,55.78,10.76,0.02,,,,,,,
"Cc1cc(Nc2nc(Nc3ccccc3S(=O)(=O)C(C)C)c3cn[nH]c3n2)c(OC(C)C)cc1C1CCN(C)CC1 [Compound A2, N6-(2-isopropoxy-5-methyl-4-(1-methylpiperidin-4-yl)phenyl)-N4-(2-(isopropylsulfonyl)phenyl)-1H-pyrazolo[3,4-d]pyrimidine-4,6-diamine]",0.10,180.10,179.71,0.23,0.97,196.56,1.38,195.92,183.68,0.63,0.20,61.99,177.26,0.47,196.81,0.87,identified as synergistic,193.34,preferential single-agent efficacy for the ALK disease cell lines over the ALK normal cell lines,,"Synergy score (Mean) ([9]; NB-1 (WT_Amp), Table 3, listed as Cmpd A2 Self Cross): 2.97"
"CN(C)C(=O)c1cc2cnc(Nc3ccc(N4CCNCC4)cn3)nc2n1C1CCCC1 [Compound B, 7-cyclopentyl-N,N-dimethyl-2-((5-(piperazin-1-yl)pyridin-2-yl)amino)-7H-pyrrolo[2,3-d]pyrimidine-6-carboxamide]",0.35,48.76,89.02,1.04,0.38,91.57,0.97,61.5,45.7,0.54,0.48,,93.3,1.41,73.59,0.57,0.34,40.57,single-agent efficacy (>100) in two disease cell lines and one normal cell line; also recorded: minimal single agent efficacy or synergy,0.388,"Max Combo Effect ([1]; CHP-134 (ALK WT), Table 2): 52.3; Max Combo Effect ([2]; IMR-5 (ALK WT), Table 2): 82.0; Synergy score (Mean) ([2]; IMR-5 (ALK WT), Table 2): 0.788; Max Combo Effect ([8]; Table 2): 99.2; Synergy score (Mean) ([8]; Table 2): 1.161; Synergy score (Mean) ([9]; NB-1 (WT Amp), Table 2): 1.429; Max Combo Effect ([9]; NB-1 (WT Amp), Table 2): 111.0; Synergy score (Mean) ([3]; Table 2): 1.032; Max Combo Effect ([3]; Table 2): 121.1; Synergy score (Mean) ([4]; Table 2): 1.476; Max Combo Effect ([4]; Table 2): 98.6; Max Combo Effect ([5]; Table 2): 43.9; Synergy score (Mean) ([5]; Table 2): 0.122; Synergy score (Mean) ([6]; Table 2): 0.503; Max Combo Effect ([6]; Table 2): 64.7; Max Combo Effect ([7]; Table 2): 75.2; Synergy score (Mean) ([7]; Table 2): 0.628; Mean of synergy scores over the cell lines [10]: 0.757; Median of synergy scores over the cell lines [10]: 0.788; Efficacy and synergy over the panel (scatter plots) [10]: no single agent efficacy in any of the cell lines tested"
"Cc1cc(Nc2ncc(Cl)c(Nc3ccccc3S(=O)(=O)C(C)C)n2)c(OC(C)C)cc1C1CCNCC1 [Compound A1, 5-chloro-N2-(2-isopropoxy-5-methyl-4-(piperidin-4-yl)phenyl)-N4-[2-(propane-2-sulfonyl)-phenyl]-pyrimidine-2,4-diamine]",,,,,,,,,,,,,,,,,,,preferential single-agent efficacy for the ALK disease cell lines over the ALK normal cell lines,0.223,"Max Combo Effect ([1]; CHP-134 (ALK WT), Table 2): 26.1; Max Combo Effect ([2]; IMR-5 (ALK WT), Table 2): 80.4; Synergy score (Mean) ([2]; IMR-5 (ALK WT), Table 2): 0.884; Max Combo Effect ([8]; Table 2): 166.1; Synergy score (Mean) ([8]; Table 2): 1.731; Synergy score (Mean) ([9]; NB-1 (WT Amp), Table 2): 1.607; Max Combo Effect ([9]; NB-1 (WT Amp), Table 2): 181.9; Synergy score (Mean) ([3]; Table 2): 0.760; Max Combo Effect ([3]; Table 2): 111.9; Synergy score (Mean) ([4]; Table 2): 0.908; Max Combo Effect ([4]; Table 2): 141.5; Max Combo Effect ([5]; Table 2): 27.1; Synergy score (Mean) ([5]; Table 2): 0.152; Synergy score (Mean) ([6]; Table 2): 0.374; Max Combo Effect ([6]; Table 2): 42.4; Max Combo Effect ([7]; Table 2): 25.2; Synergy score (Mean) ([7]; Table 2): 0.246; Mean of synergy scores over the cell lines [10]: 0.841; Median of synergy scores over the cell lines [10]: 0.884; Efficacy and synergy over the panel (scatter plots) [10]: preferential single agent efficacy for the ALK Disease subset of cell lines over the ALK WT cell lines"
